For the assay, the target named is T1, α1G T-type Ca2+ channels (Homo sapiens, UniProt O43497).
T1 construct: expressed in transfected cells; host or cells: HEK293 cells stably expressing α1G and Kir2.1
The assay is described as follows: Screening of activity against T-type calcium channel with FDSS6000 (fluorescence, KCl-induced [Ca2+]i increase). Format: cell-based. Particulars: 100 μM; HEK293 cells expressing α1G and Kir2.1; read-out: Inhibitory effect (%) of T-type calcium channel, Inhibition (%). The protocol:
Meanwhile, the antagonistic activity of the novel compound of Formula (1) herein against T-type calcium channel was tested as described below. The synthesized compounds were tested for the activity against T-type calcium channel with FDSS6000. Compounds with good activity were selected and IC50 values were exactly obtained by using electrophysiological whole cell patch clamp method. HEK293 cells which stably express both α1G and Kir2.1 subunits were grown in Dulbecco's modified Eagle's medium supplemented with 10% (v/v) fetal bovine serum, penicillin (100 U/mL), streptomycin (100 μg/mL), geneticin (500 μg/mL), and +puromycin (I μg/mL) at 37° C. in a humid atmosphere of 5% CO2 and 95% air. Cells were seeded into 96-well black wall clear bottom plates at a density of 4×10^4 cells/well and were used the next day for high-throughput screening (HTS) FDSS6000 assay. For FDSS6000 assay, cells were incubated for 60 min at room temperature with 5 μM fluo3/AM and 0.001% Pluronic F-127 in a HEPES-buffered solution composed of (in mM): 115 NaCl, 5.4 KCl, 0.8 MgCl2, 1.8 CaCl2, 20 HEPES, 13.8 glucose (pH 7.4). During the fluorescence-based FDSS6000 assay, cells in HEPES-buffered solution containing 10 mM CaCl2 were pretreated with a certain concentration of test compounds and then treated with high concentration of KCl ([…]). α1G T-type Ca^2+ channels were activated by using high concentration of KCl (70 mM) and the increase in [Ca^2+]i by KCl-induced depolarization was detected. During the whole procedure, cells were washed using the BIO-TEK 96-well washer. All data were collected and analyzed using FDSS6000 and related software (Hamamatsu, Japan). The IC50 results of examining the inhibitory effects of the compounds herein selected with FDSS6000 on the calcium influx through the T-type calcium channel are provided in TABLEs 1 and 2.

For 24 compounds, inhibition results are on record in patent US7319098B2, “1,3-dioxoisoindole derivatives having selective antagonism of T-type calcium channel” (Korea Institute of Science and Technology, priority 2006, dated 2008).

T1 sequence (O43497 whole entry): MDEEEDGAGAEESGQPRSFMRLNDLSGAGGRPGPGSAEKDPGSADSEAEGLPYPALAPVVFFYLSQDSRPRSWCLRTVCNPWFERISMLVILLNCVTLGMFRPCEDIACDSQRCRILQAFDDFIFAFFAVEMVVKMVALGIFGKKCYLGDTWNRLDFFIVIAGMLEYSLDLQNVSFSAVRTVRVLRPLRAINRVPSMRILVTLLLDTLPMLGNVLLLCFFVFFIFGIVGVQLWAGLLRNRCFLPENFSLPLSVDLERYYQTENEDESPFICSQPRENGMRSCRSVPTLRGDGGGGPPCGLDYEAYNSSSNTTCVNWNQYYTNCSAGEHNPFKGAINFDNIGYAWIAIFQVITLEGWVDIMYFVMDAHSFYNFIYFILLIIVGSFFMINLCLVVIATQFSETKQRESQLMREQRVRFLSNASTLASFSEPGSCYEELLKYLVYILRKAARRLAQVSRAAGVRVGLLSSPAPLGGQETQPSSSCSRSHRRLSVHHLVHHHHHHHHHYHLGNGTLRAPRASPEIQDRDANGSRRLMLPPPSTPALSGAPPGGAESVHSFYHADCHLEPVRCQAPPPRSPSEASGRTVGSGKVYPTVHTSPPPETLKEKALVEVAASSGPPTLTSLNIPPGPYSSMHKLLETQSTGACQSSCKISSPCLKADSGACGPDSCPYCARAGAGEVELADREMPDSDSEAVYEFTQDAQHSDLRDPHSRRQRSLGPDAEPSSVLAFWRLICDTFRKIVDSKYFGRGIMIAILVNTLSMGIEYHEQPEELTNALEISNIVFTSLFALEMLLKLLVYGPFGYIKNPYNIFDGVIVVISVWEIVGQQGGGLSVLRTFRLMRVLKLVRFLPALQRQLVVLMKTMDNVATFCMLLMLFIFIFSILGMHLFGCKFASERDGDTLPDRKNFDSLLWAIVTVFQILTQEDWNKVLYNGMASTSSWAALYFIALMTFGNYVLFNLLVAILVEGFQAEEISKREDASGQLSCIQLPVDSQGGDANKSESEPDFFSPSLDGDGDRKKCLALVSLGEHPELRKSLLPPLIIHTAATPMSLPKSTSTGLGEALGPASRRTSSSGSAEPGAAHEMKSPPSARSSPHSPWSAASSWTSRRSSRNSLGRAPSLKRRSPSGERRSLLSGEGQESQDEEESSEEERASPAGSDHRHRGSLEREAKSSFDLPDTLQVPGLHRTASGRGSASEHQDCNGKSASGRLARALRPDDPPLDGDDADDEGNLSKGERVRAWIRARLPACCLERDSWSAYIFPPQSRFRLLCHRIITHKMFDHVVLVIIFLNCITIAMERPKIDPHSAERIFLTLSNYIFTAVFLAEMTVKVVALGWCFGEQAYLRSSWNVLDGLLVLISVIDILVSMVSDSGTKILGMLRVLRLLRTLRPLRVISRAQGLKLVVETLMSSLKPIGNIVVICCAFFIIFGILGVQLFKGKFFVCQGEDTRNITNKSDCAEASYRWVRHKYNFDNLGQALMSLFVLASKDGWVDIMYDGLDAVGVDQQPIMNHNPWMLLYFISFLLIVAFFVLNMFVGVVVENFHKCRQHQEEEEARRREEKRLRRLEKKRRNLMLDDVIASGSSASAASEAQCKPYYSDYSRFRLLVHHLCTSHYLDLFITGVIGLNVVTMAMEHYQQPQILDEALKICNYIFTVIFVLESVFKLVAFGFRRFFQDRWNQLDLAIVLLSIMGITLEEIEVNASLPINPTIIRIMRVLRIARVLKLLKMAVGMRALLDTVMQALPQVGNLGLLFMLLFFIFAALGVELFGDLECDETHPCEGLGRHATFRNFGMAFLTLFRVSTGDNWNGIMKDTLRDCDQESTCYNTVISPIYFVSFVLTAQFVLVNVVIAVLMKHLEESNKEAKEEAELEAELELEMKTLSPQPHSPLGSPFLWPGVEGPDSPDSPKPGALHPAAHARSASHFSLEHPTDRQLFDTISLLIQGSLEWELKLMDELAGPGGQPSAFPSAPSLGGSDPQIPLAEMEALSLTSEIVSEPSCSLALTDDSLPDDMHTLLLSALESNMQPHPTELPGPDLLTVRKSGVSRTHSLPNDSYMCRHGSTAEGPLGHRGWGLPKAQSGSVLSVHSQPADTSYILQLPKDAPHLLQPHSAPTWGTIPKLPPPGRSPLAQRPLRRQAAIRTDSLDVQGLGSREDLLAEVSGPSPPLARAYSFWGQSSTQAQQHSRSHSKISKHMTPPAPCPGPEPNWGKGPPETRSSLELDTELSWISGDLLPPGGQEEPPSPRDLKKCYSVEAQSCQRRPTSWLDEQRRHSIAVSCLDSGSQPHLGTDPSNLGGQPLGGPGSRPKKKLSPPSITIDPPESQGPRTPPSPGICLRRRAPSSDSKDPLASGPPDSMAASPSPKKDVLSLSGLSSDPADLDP

For `O=C(NCCN1CCCCC1)c1ccc2c(c1)C(=O)N(c1ccccc1)C2=O` [Compound 1, 1-{2-[(1,3-dioxo-2-phenyl-2,3-dihydro-1H-isoindol-5-carbonyl)-amino]-ethyl}-piperidinium chloride], the inhibition at 100 µM stood at 28.1%.
As for `CC1CCCCN1CCCNC(=O)c1ccc2c(c1)C(=O)N(c1ccccc1)C2=O` (stereo not drawn) [Compound 2, 1-{3-[(1,3-dioxo-2-phenyl-2,3-dihydro-1H-isoindol-5-carbonyl)-amino]-propyl}-2-methyl-piperidinium chloride], the figure is 33.8%; as for `O=C(NCCN1CCCC1)c1ccc2c(c1)C(=O)N(c1ccccc1)C2=O` [Compound 3, 1-{2-[(1,3-dioxo-2-phenyl-2,3-dihydro-1H-isoindol-5-carbonyl)-amino]-ethyl}-pyrrolidinium chloride], 20.3%.
As for `O=C(NCCCN1CCCC1)c1ccc2c(c1)C(=O)N(c1ccccc1)C2=O` [Compound 4, 1-{3-[(1,3-dioxo-2-phenyl-2,3-dihydro-1H-isoindol-5-carbonyl)-amino]-propyl}-pyrrolidinium chloride], the figure is 38.7%; as for `O=C(NCCN1CCOCC1)c1ccc2c(c1)C(=O)N(c1ccccc1)C2=O` [Compound 5, 4-{2-[(1,3-dioxo-2-phenyl-2,3-dihydro-1H-isoindol-5-carbonyl)-amino]-ethyl}-4-morpholinium chloride], 22.7%; as for `O=C(NCCCN1CCOCC1)c1ccc2c(c1)C(=O)N(c1ccccc1)C2=O` [Compound 6, 4-{3-[(1,3-dioxo-2-phenyl-2,3-dihydro-1H-isoindol-5-carbonyl)-amino]-propyl}-4-morpholinium chloride], 22.3%.
As for `O=C(NCCN1CCCCC1)c1ccc2c(c1)C(=O)N(c1ccccc1F)C2=O` [Compound 7, 1-(2-{[2-(2-fluoro-phenyl)-1,3-dioxo-2,3-dihydro-1H-isoindol-5-carbonyl]-amino}-ethyl)-piperidinium chloride], the figure is 40.6%.
`CC1CCCCN1CCCNC(=O)c1ccc2c(c1)C(=O)N(c1ccccc1F)C2=O` (stereo not drawn) [Compound 8, 1-(3-{[2-(2-fluoro-phenyl)-1,3-dioxo-2,3-dihydro-1H-isoindol-5-carbonyl]-amino}-propyl)-2-methyl-piperidinium chloride]: the inhibition at 100 µM turned out to be 36.8%.
As to `O=C(NCCN1CCCC1)c1ccc2c(c1)C(=O)N(c1ccccc1F)C2=O` [Compound 9, 1-(2-{[2-(2-fluoro-phenyl)-1,3-dioxo-2,3-dihydro-1H-isoindol-5-carbonyl]-amino}-ethyl)-pyrrolidinium chloride], the inhibition at 100 µM is 39.7%.
Regarding `O=C(NCCCN1CCCC1)c1ccc2c(c1)C(=O)N(c1ccccc1F)C2=O` [Compound 10, 1-(3-{[2-(2-fluoro-phenyl)-1,3-dioxo-2,3-dihydro-1H-isoindol-5-carbonyl]-amino}-propyl)-pyrrolidinium chloride], the inhibition at 100 µM amounted to 32.5%.
For the compound `O=C(NCCN1CCOCC1)c1ccc2c(c1)C(=O)N(c1ccccc1F)C2=O` [Compound 11, 4-(2-{[2-(2-fluoro-phenyl)-1,3-dioxo-2,3-dihydro-1H-isoindol-5-carbonyl]-amino}-ethyl)-4-morpholinium chloride], the inhibition at 100 µM was 22.7%.
On to `O=C(NCCCN1CCOCC1)c1ccc2c(c1)C(=O)N(c1ccccc1F)C2=O` [Compound 12, 4-(3-{[2-(2-fluoro-phenyl)-1,3-dioxo-2,3-dihydro-1H-isoindol-5-carbonyl]-amino}-propyl)-4-morpholinium chloride], for which the inhibition at 100 µM came out at 21.1%.
On to `O=C(NCCN1CCCCC1)c1ccc2c(c1)C(=O)N(c1cccc(F)c1)C2=O` [Compound 13, 1-(2-{[2-(3-fluoro-phenyl)-1,3-dioxo-2,3-dihydro-1H-isoindol-5-carbonyl]-amino}-ethyl)-piperidinium chloride], for which the inhibition at 100 µM came to 43%.
`CC1CCCCN1CCCNC(=O)c1ccc2c(c1)C(=O)N(c1cccc(F)c1)C2=O` (stereo not drawn) [Compound 14, 1-(3-{[2-(3-fluoro-phenyl)-1,3-dioxo-2,3-dihydro-1H-isoindol-5-carbonyl]-amino}-propyl)-2-methyl-piperidinium chloride]: the inhibition at 100 µM stood at 44.2%.
Take `O=C(NCCN1CCCC1)c1ccc2c(c1)C(=O)N(c1cccc(F)c1)C2=O` [Compound 15, 1-(2-{[2-(3-fluoro-phenyl)-1,3-dioxo-2,3-dihydro-1H-isoindol-5-carbonyl]-amino}-ethyl)-pyrrolidinium chloride]: the inhibition at 100 µM turned out to be 25.8%.
For `O=C(NCCCN1CCCC1)c1ccc2c(c1)C(=O)N(c1cccc(F)c1)C2=O` [Compound 16, 1-(3-{[2-(3-fluoro-phenyl)-1,3-dioxo-2,3-dihydro-1H-isoindol-5-carbonyl]-amino}-propyl)-pyrrolidinium chloride], the inhibition at 100 µM came out at 30%.
As to `O=C(NCCN1CCOCC1)c1ccc2c(c1)C(=O)N(c1cccc(F)c1)C2=O` [Compound 17, 4-(2-{[2-(3-fluoro-phenyl)-1,3-dioxo-2,3-dihydro-1H-isoindol-5-carbonyl]-amino}-ethyl)-4-morpholinium chloride], the inhibition at 100 µM was 29.2%.
As for `O=C(NCCCN1CCOCC1)c1ccc2c(c1)C(=O)N(c1cccc(F)c1)C2=O` [Compound 18, 4-(3-{[2-(3-fluoro-phenyl)-1,3-dioxo-2,3-dihydro-1H-isoindol-5-carbonyl]-amino}-propyl)-4-morpholinium chloride], the figure is 22.7%; as for `O=C(NCCN1CCCCC1)c1ccc2c(c1)C(=O)N(c1ccc(F)cc1)C2=O` [Compound 19, 1-(2-{[2-(4-fluoro-phenyl)-1,3-dioxo-2,3-dihydro-1H-isoindol-5-carbonyl]-amino}-ethyl)-piperidinium chloride], 45.7%.
As for `CC1CCCCN1CCCNC(=O)c1ccc2c(c1)C(=O)N(c1ccc(F)cc1)C2=O` (stereo not drawn) [Compound 20, 1-(3-{[2-(4-fluoro-phenyl)-1,3-dioxo-2,3-dihydro-1H-isoindol-5-carbonyl]-amino}-propyl)-2-methyl-piperidinium chloride], the inhibition at 100 µM stood at 44.7%.
To `O=C(NCCN1CCCC1)c1ccc2c(c1)C(=O)N(c1ccc(F)cc1)C2=O` [Compound 21, 1-(2-{[2-(4-fluoro-phenyl)-1,3-dioxo-2,3-dihydro-1H-isoindol-5-carbonyl]-amino}-ethyl)-pyrrolidinium chloride] belongs 19.4%; to `O=C(NCCCN1CCCC1)c1ccc2c(c1)C(=O)N(c1ccc(F)cc1)C2=O` [Compound 22, 1-(3-{[2-(4-fluoro-phenyl)-1,3-dioxo-2,3-dihydro-1H-isoindol-5-carbonyl]-amino}-propyl)-pyrrolidinium chloride], 19.3%.
As for `O=C(NCCN1CCOCC1)c1ccc2c(c1)C(=O)N(c1ccc(F)cc1)C2=O` [Compound 23, 4-(2-{[2-(4-fluoro-phenyl)-1,3-dioxo-2,3-dihydro-1H-isoindol-5-carbonyl]-amino}-ethyl)-4-morpholinium chloride], the figure is 14.5%; as for `O=C(NCCCN1CCOCC1)c1ccc2c(c1)C(=O)N(c1ccc(F)cc1)C2=O` [Compound 24, 4-(3-{[2-(4-fluoro-phenyl)-1,3-dioxo-2,3-dihydro-1H-isoindol-5-carbonyl]-amino}-propyl)-4-morpholinium chloride], 21.4%.
